Data from patent US20040214900A1, “Method of treating strongyloides infections and medicaments therefor” (priority 2003, published 2004).
Where two headings read alike, the source gives them in different places. Marks after values point to notes of the source that are not given here.

Legend:
[1] = tested on: Strongyloides stercoralis infective larvae; assay: Immobilisation of S. stercoralis infective larvae incubated in 0.6% AI suspensions; assay type: cell-based; conditions: for Relative activity (RA), immobilisation / Larvae immobilized: 0.6% AI; for Relative activity (RA), immobilisation: RA of albendazole used as reference; for It50 (hours) ±95% Fiducial limits (FL), immobilisation time: 0.6% active ingredient, S. stercoralis infective larvae; for Larvae immobilized: within one hour's exposure
Procedure: (§1) Coproculture of about 30 g of fresh, moistened canine faeces was conducted using granular charcoal (1:1 v:v) in sealed 10 cm diameter Petri dishes. Cultures were maintained at 26° C. under semi-lighted conditions. S. stercoralis filariform larvae typically migrated to the surface of the culture and eventually into water droplets that condensed on the inner surface of the lid. Larvae appearing within 2 days were mostly those accruing from the homogonic cycle and usually occurred in insufficient numbers for bioassay. After five to eight days had elapsed free-living adult worms had effected a 50-fold increase in the population density (heterogonic cycle).
The effectiveness of the tested compounds was evaluated by incubating larvae obtained as in Example 1 in suspensions containing 0.6% of Compound (1) as the active ingredient (AI). Incubation times were 1, 2, 3, 4, 5, 6, 24, 48, 72, and 96 hours. Three (3) replicates were run in each assay, using >>100 larvae per replicate.
The anthelmintic effectiveness of Compound (1) and of three commercial anthelmintics, namely albendazole, thiabendazole, and ivermectin, was evaluated, and the results are summarized in Table 1. Compound (1) immobilized 100% of the larvae within one hour's exposure. This was also true for ivermectin. However, similar concentrations of albendazole and thiabendazole immobilized 50% of the infective larvae only after 73.7 and 78.9 hours, respectively.

[2] = tested on: Strongyloides stercoralis infective larvae; assay: microbe, parasite or virus in culture; assay type: cell-based; conditions: for Relative activity (RA), mortality: RA of Compound (1) used as reference; for Lt50 (hours) ±95% Fiducial limits (FL), mortality time: S. stercoralis infective larvae; for mortality at 0.6 % strength: Strongyloides stercoralis, read-out: Larvae killed (mortality)
Procedure: as §1
The lethality of the tested compounds was evaluated by incubating larvae obtained as in Example 1 in suspensions containing 0.6% of Compound (1) as the active ingredient (AI).
The mortality of the larvae was assessed by a dye exclusion test such as have been used successfully to indicate viability in parasitic platyhelminths. (See Halton & Arme (1971) Exp. Parasit. 30:54; Robinson & Arme (1985) Ann. Trop. Med. & Parasit. 79:17.) Similar testing was applied to S. stercoralis larvae. In these tests, use of
0.01% v/v eosin in LNSS (ELNSS) in an eosin-exclusion test indicated death of larvae in less than 10 minutes and had no effect on healthy individuals.

| Molecule | Relative activity (RA), immobilisation [1] | It50 (hours) ±95% Fiducial limits (FL), immobilisation time [1] | It50 (hours) ±95% Fiducial limits (FL), immobilisation time ([1]; listed as thiabendazole) [h] | Relative activity (RA), mortality ([2]; 0.6% AI) | Lt50 (hours) ±95% Fiducial limits (FL), mortality time ([2]; 0.6% AI) | mortality at 0.6 % strength ([2]; 120 h) [%] | Larvae immobilized [1] [%] | Lt50 (hours) ±95% Fiducial limits (FL), mortality time ([2]; 0.6% AI, listed as Compound(1)) | Fold increase in lethal activity over albendazole ([2]; Lt50 basis, 0.6% AI, versus albendazole) [fold] | Fold increase in lethal activity over ivermectin ([2]; Lt50 basis, 0.6% AI, versus ivermectin) [fold] | Fold increase in lethal activity over thiabendazole ([2]; Lt50 basis, 0.6% AI, versus thiabendazole) [fold] | mortality at 0.6 % strength ([2]; 6 h, after six hours, 0.6% AI) [%] | It50 (hours) ±95% Fiducial limits (FL), immobilisation time ([1]; listed as albendazole) [h] | Lt50 (hours) ±95% Fiducial limits (FL), mortality time ([2]; 0.6% AI, listed as ivermectin) [h] | Larvae killed (mortality) ([2]; after 24 hours, 0.6% AI) [%] |
| --- | --- | --- | --- | --- | --- | --- | --- | --- | --- | --- | --- | --- | --- | --- | --- |
| c1ccc2[nH]c(-c3cscn3)nc2c1 [Thiabendazole] | 0.93 | 78.9 (65.5-92.8) hours | 78.9 | 0.01 | 178.9 h | 14.1 | – | – | – | – | – | – | – | – | – |
| CCCCCCCCC/C=C/C=O [Compound (1), E-2-dodecenal] | >1.00 | <1* hours | – | 1.00* | 2.2 h | – | 100 | 2.2 (1.2-3.3) hours | 66.1 | 7.1 | 81.3 | 90.8 | – | – | – |
| CCCSc1ccc2nc(NC(=O)OC)[nH]c2c1 [Albendazole, albendazole] | 1.00 | 73.7 (60.4-87.0) hours | – | 0.02 | 145.3 h | 37.4 | – | – | – | – | – | – | 73.7 | – | – |
| ivermectin | >1.00 | <1* hours | – | 0.14 | 15.7 (12.5-18.1) hours | – | 100 | – | – | – | – | – | – | 15.7 | 89.0 |
